Assay results reported in patent publication US20210023111A1, “Novel Form of Invermectin and a Process for Making it” (Hovione Scientia Limited, priority 2018, published 2021).

Experiments:
[1] = Solid-state stability of the amorphous form on storage (XRPD); assay type: physicochemical
From the text: By stable we mean that the amorphous form is maintained after a certain period of time under certain environmental conditions. We have data confirming that the product maintains its amorphous form at room temperature for at least 3.5 months.
X-ray diffraction (XRPD) analysis was made with PANalytical Empyrean equipped with copper tube and PIXel1D-Medpix3 detector (Malvern Panalytical, UK).

[2] = Water solubility by HPLC, amorphous vs crystalline ivermectin; assay type: physicochemical; conditions: for peak on the HPLC chromatogram (water solubility): LOD of the HPLC method
From the text: This confirms that the amorphous form is more water soluble than the known crystalline form.

Substance | amorphous character after storage (XRPD, FIG. 7) ([1]; 3 months in the freezer followed by 3.5 months at room temperature (25° C.)) | time for which the product maintains its amorphous form ([1]; room temperature) | water solubility relative to the crystalline form [2] | peak on the HPLC chromatogram (water solubility) ([2]; listed as amorphous form) | peak on the HPLC chromatogram (water solubility) [2]
ivermectin [amorphous ivermectin] | amorphous character is maintained | at least 3.5 months | higher than its corresponding crystalline form | small, but visible peak | –
ivermectin [known crystalline form, reference compound] | – | – | – | – | no visible peak
